From PubChem BioAssay (NCI) come the findings set out here.

Molecules are shown by their SMILES.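 Results reflect a 48-hour exposure of cells in 96-well plates to compound at five concentrations. TGI denotes the concentration required for complete inhibition of growth.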

Some test systems named below: 786-0 renal; COLO 205 colon; HOP-92 NSCLC; MALME-3M melanoma; MOLT-4 leukemia; NCI-H23 lung; NCI-H522 lung; OVCAR-5 ovarian; OVCAR-8 ovarian; RPMI-8226 leukemia; SF-295 CNS; SK-OV-3 ovarian; SNB-19 CNS; SW-620 colon; UACC-257 melanoma; XF 498 CNS.
Assay in all cases: growth of human tumour cells (NCI), 48 h

For `CCc1ccccc1NC(=O)CC1NC(=O)CS1` (configuration not stated), the TGI in the experiment with 786-0 renal, in the experiment with COLO 205 colon, in the experiment on HOP-92 NSCLC, with MALME-3M melanoma, in the experiment with MOLT-4 leukemia and in the experiment on NCI-H23 lung was greater than 100 µM in each case. Further, the TGI in the experiment on NCI-H522 lung, in the experiment with OVCAR-5 ovarian, with OVCAR-8 ovarian, in the experiment on RPMI-8226 leukemia, with SF-295 CNS and in the experiment on SK-OV-3 ovarian was greater than 100 µM each time. Besides, the TGI with SNB-19 CNS, in the experiment with SW-620 colon, with UACC-257 melanoma and in the experiment on XF 498 CNS was greater than 100 µM each time.

In the case of `Cc1ccc(NC(=O)/C(C#N)=C/c2ccccc2)c(C)c1`, the TGI in the experiment with 786-0 renal, in the experiment with COLO 205 colon, in the experiment on HOP-92 NSCLC, with MALME-3M melanoma, with MOLT-4 leukemia and in the experiment with NCI-H23 lung was greater than 100 µM each time. Moreover, the TGI in the experiment on NCI-H522 lung, in the experiment on OVCAR-5 ovarian, in the experiment with OVCAR-8 ovarian, in the experiment on RPMI-8226 leukemia, with SF-295 CNS and in the experiment with SK-OV-3 ovarian was greater than 100 µM in each case. Besides, the TGI in the experiment on SNB-19 CNS, in the experiment with SW-620 colon, with UACC-257 melanoma and with XF 498 CNS was greater than 100 µM in each case.

On to `CC(C)N(C(=O)C12C3C4C1C1C2C3C41C(=O)N(C(C)C)C(C)C)C(C)C` (configuration not stated), for which the TGI in the experiment with 786-0 renal, in the experiment with COLO 205 colon, in the experiment with MALME-3M melanoma, with MOLT-4 leukemia, in the experiment on NCI-H23 lung and in the experiment on NCI-H522 lung was greater than 50 µM throughout. The TGI in the experiment on OVCAR-5 ovarian, in the experiment on OVCAR-8 ovarian, with RPMI-8226 leukemia, with SF-295 CNS, in the experiment on SK-OV-3 ovarian and with SNB-19 CNS was greater than 50 µM in each case. The TGI in the experiment on SW-620 colon, with UACC-257 melanoma and in the experiment with XF 498 CNS was greater than 50 µM in each case.

With `CSc1ccc2c(cc1=O)C(NC(=O)c1ccc(C#N)cc1)CCc1cc(O)c(O)c(O)c1-2` (configuration not stated), the TGI is greater than 100 µM in the experiment on 786-0 renal; 38.6 µM in the experiment on COLO 205 colon; greater than 100 µM in the experiment on MALME-3M melanoma; 59 µM in the experiment with MOLT-4 leukemia; 71.3 µM with NCI-H23 lung; 40.3 µM in the experiment on NCI-H522 lung. Moreover, the TGI was greater than 100 µM with OVCAR-5 ovarian; 99.7 µM in the experiment on OVCAR-8 ovarian; 74.7 µM in the experiment on SF-295 CNS; 63.7 µM with SK-OV-3 ovarian; greater than 100 µM in the experiment with SNB-19 CNS; 37.7 µM in the experiment on SW-620 colon. Also, the values for the TGI in the experiment with UACC-257 melanoma and in the experiment with XF 498 CNS were 37 µM and 89.2 µM, respectively.

Turning to `O=C(O)C12CC3CC(CC(F)(C3)C1)C2`, the TGI with 786-0 renal, in the experiment on COLO 205 colon, in the experiment on HOP-92 NSCLC, in the experiment with MALME-3M melanoma, in the experiment on MOLT-4 leukemia and in the experiment on NCI-H23 lung was greater than 100 µM in each case. Further, the TGI with NCI-H522 lung, in the experiment on OVCAR-5 ovarian, with OVCAR-8 ovarian, in the experiment with RPMI-8226 leukemia, in the experiment with SK-OV-3 ovarian and in the experiment on SW-620 colon was greater than 100 µM throughout. Also, the TGI in the experiment on UACC-257 melanoma and with XF 498 CNS was greater than 100 µM in each case.

Consider `CN(C)CC(/C(Cc1ccccc1)=N\NC(=S)NN)c1ccccc1` (configuration not stated), for which the TGI with 786-0 renal, in the experiment with COLO 205 colon, in the experiment on HOP-92 NSCLC, in the experiment with MALME-3M melanoma, in the experiment with MOLT-4 leukemia and with NCI-H23 lung was greater than 100 µM throughout. For the same compound, the TGI in the experiment with NCI-H522 lung, in the experiment on OVCAR-5 ovarian, in the experiment with OVCAR-8 ovarian, in the experiment with RPMI-8226 leukemia, with SF-295 CNS and in the experiment on SK-OV-3 ovarian was greater than 100 µM throughout. Besides, the TGI with SNB-19 CNS, in the experiment with SW-620 colon, with UACC-257 melanoma and in the experiment with XF 498 CNS was greater than 100 µM throughout.

As to `CN(C)C(F)=PC(F)(F)F` (configuration not stated), the TGI with 786-0 renal, in the experiment on COLO 205 colon, in the experiment on HOP-92 NSCLC, in the experiment on MALME-3M melanoma, with MOLT-4 leukemia and in the experiment with NCI-H23 lung was greater than 100 µM in each case. Further, the TGI in the experiment with NCI-H522 lung, with OVCAR-5 ovarian, in the experiment with OVCAR-8 ovarian, in the experiment with RPMI-8226 leukemia, in the experiment with SF-295 CNS and in the experiment with SK-OV-3 ovarian was greater than 100 µM in each case. Also, the TGI in the experiment on SNB-19 CNS, in the experiment with SW-620 colon, with UACC-257 melanoma and in the experiment on XF 498 CNS was greater than 100 µM throughout.

As for `O=c1ccn(/C=C/C(O)C(O)CO)c(=O)[nH]1` (configuration not stated), the TGI with 786-0 renal, in the experiment with COLO 205 colon, in the experiment with MALME-3M melanoma, with MOLT-4 leukemia, with NCI-H23 lung and in the experiment with NCI-H522 lung was greater than 100 µM in each case. Further, the TGI in the experiment on OVCAR-5 ovarian, with OVCAR-8 ovarian, in the experiment with RPMI-8226 leukemia, with SF-295 CNS, in the experiment with SK-OV-3 ovarian and in the experiment on SNB-19 CNS was greater than 100 µM throughout. Also, the TGI in the experiment on SW-620 colon, in the experiment on UACC-257 melanoma and in the experiment with XF 498 CNS was greater than 100 µM throughout.

In the case of `N#CNC1=NC(N)C(c2nc3ccccc3[nH]2)=C(CCCC(=O)Nc2cccc([N+](=O)[O-])c2)N1` (configuration not stated), the TGI with 786-0 renal, with COLO 205 colon, in the experiment on MALME-3M melanoma, in the experiment on MOLT-4 leukemia, in the experiment with NCI-H23 lung and in the experiment on NCI-H522 lung was greater than 100 µM each time. Also, the TGI in the experiment on OVCAR-5 ovarian, in the experiment on OVCAR-8 ovarian, in the experiment on RPMI-8226 leukemia, with SF-295 CNS, with SK-OV-3 ovarian and with SNB-19 CNS was greater than 100 µM each time. The TGI in the experiment on SW-620 colon, in the experiment on UACC-257 melanoma and in the experiment with XF 498 CNS was greater than 100 µM throughout.
